Laboratory results as given in PubChem BioAssay (NCI).
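Assay format: 96-well plates, 48-hour exposure. TGI marks complete inhibition of growth.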

How the values were obtained:
Assay in all cases: DTP human tumour cell line panel, 48 h
[1] = system: ACHN renal
[2] = system: COLO 205 colon
[3] = system: EKVX NSCLC
[4] = system: HCT-15 colon
[5] = system: IGROV1 ovarian
[6] = system: MALME-3M melanoma
[7] = system: MCF7 breast
[8] = system: MDA-MB-231 breast
[9] = system: MDA-N
[10] = system: NCI-H460 lung
[11] = system: NCI/ADR-RES ovarian
[12] = system: OVCAR-3 ovarian
[13] = system: RXF 393 renal
[14] = system: SK-MEL-28 melanoma
[15] = system: SW-620 colon
[16] = system: TK-10 renal
[17] = system: UACC-257 melanoma
[18] = system: UACC-62 melanoma
[19] = system: UO-31 renal
[20] = system: NCI-H522 lung

SMILES	TGI [1]	TGI [2]	TGI [3]	TGI [4]	TGI [5]	TGI [6]	TGI [7]	TGI [8]	TGI [9]	TGI [10]	TGI [11]	TGI [12]	TGI [13]	TGI [14]	TGI [15]	TGI [16]	TGI [17]	TGI [18]	TGI [19]	TGI [20]
O=C1/C(=C/c2ccccc2)CCc2ccccc21	32.4 µM	38.2 µM	33.7 µM	86.9 µM	54.3 µM	31.9 µM	34.6 µM	87.7 µM	32.2 µM	65.4 µM	83.2 µM	30.2 µM	29.7 µM	38.3 µM	34.2 µM	29.2 µM	31.4 µM	36.7 µM	27.8 µM	–
Cc1sc(N)c(S(=O)(=O)c2ccccc2)c1C	> 100 µM	> 100 µM	> 100 µM	> 100 µM	> 100 µM	> 100 µM	> 100 µM	> 100 µM	–	> 100 µM	> 100 µM	> 100 µM	> 100 µM	> 100 µM	> 100 µM	> 100 µM	> 100 µM	> 100 µM	> 100 µM	> 100 µM
CC(=O)OC1CC[C@@]2(C)C(C1)CC(OC(C)=O)[C@@H]1C2CC(OC(C)=O)[C@]2(C)C(C(C)CC=C(c3ccc(Cl)cc3)c3ccc(Cl)cc3)CCC12 (some centres undefined)	> 100 µM	> 100 µM	> 100 µM	> 100 µM	> 100 µM	–	> 100 µM	> 100 µM	> 100 µM	> 100 µM	> 100 µM	–	–	> 100 µM	> 100 µM	> 100 µM	> 100 µM	–	> 100 µM	> 100 µM
CC1(C)CCC[C@]2(C)[C@@H]1CC[C@@]13O[C@@H]1C1=C(CO)C(=O)OC1=C[C@@H]23	> 100 µM	30.6 µM	29.2 µM	63.7 µM	29.4 µM	23.7 µM	> 100 µM	81.9 µM	–	67.4 µM	37.7 µM	–	36.4 µM	31.7 µM	37.5 µM	55.5 µM	71.2 µM	40.7 µM	26 µM	24.7 µM
O=C1CCCCC(=O)Nc2ccccc2N1	> 100 µM	> 100 µM	> 100 µM	> 100 µM	> 100 µM	> 100 µM	–	> 100 µM	> 100 µM	> 100 µM	> 100 µM	> 100 µM	> 100 µM	> 100 µM	> 100 µM	> 100 µM	> 100 µM	> 100 µM	> 100 µM	> 100 µM
Cc1n[nH]c(=O)n1/N=C/c1ccncc1	> 100 µM	> 100 µM	> 100 µM	> 100 µM	> 100 µM	> 100 µM	–	> 100 µM	> 100 µM	> 100 µM	> 100 µM	> 100 µM	> 100 µM	> 100 µM	> 100 µM	> 100 µM	> 100 µM	> 100 µM	> 100 µM	> 100 µM
Cn1c(=O)cc(NCCc2ccccc2)[nH]c1=O	> 100 µM	> 100 µM	> 100 µM	> 100 µM	> 100 µM	> 100 µM	> 100 µM	50 µM	20.5 µM	> 100 µM	98 µM	36.6 µM	> 100 µM	> 100 µM	> 100 µM	> 100 µM	> 100 µM	> 100 µM	> 100 µM	–
CC1(C)CC(=O)c2c(nc(SSc3nc4c(c(-c5ccc(Br)cc5)c3C#N)C(=O)CC(C)(C)C4)c(C#N)c2-c2ccc(Br)cc2)C1	> 10 µM	> 10 µM	> 10 µM	> 10 µM	> 10 µM	> 10 µM	> 10 µM	–	> 10 µM	> 10 µM	> 10 µM	> 10 µM	> 10 µM	> 10 µM	> 10 µM	> 10 µM	> 10 µM	–	> 10 µM	> 10 µM
COc1ccc2c(c1)CCC1=C/C(=N\NC(N)=O)CCC12C (centres undefined)	> 10 µM	> 10 µM	–	> 10 µM	> 10 µM	> 10 µM	> 10 µM	> 10 µM	> 10 µM	–	> 10 µM	> 10 µM	–	> 10 µM	> 10 µM	> 10 µM	> 10 µM	> 10 µM	–	> 10 µM
CC(=O)C(=[N+]=[N-])C(=O)OCCOC(=O)C(=[N+]=[N-])C(C)=O	> 1 µM	–	> 1 µM	> 1 µM	> 1 µM	> 1 µM	> 1 µM	> 1 µM	> 1 µM	> 1 µM	–	> 1 µM	> 1 µM	> 1 µM	–	> 1 µM	> 1 µM	> 1 µM	> 1 µM	–
S=C1N=C(Cl)/C(=C\c2ccco2)N1	> 100 µM	> 100 µM	> 100 µM	> 100 µM	> 100 µM	> 100 µM	> 100 µM	> 100 µM	–	> 100 µM	> 100 µM	> 100 µM	> 100 µM	> 100 µM	> 100 µM	> 100 µM	> 100 µM	> 100 µM	> 100 µM	> 100 µM
C[S+](C)CC(=O)c1ccc2c(c1)Sc1ccccc1O2	16.1 µM	–	14.4 µM	13.2 µM	8.1 µM	12 µM	7.28 µM	18.7 µM	–	16.2 µM	> 39.7 µM	7.58 µM	9.23 µM	25.1 µM	> 43.2 µM	16.3 µM	18.2 µM	9.38 µM	12 µM	2.5 µM
O=C(NCCNCCNC(=O)C(F)(F)F)C(F)(F)F	> 100 µM	> 100 µM	> 100 µM	> 100 µM	> 100 µM	> 100 µM	> 100 µM	> 100 µM	> 100 µM	–	> 100 µM	> 100 µM	> 100 µM	> 100 µM	> 100 µM	> 100 µM	> 100 µM	> 100 µM	> 100 µM	–
